From patent US10041047B2, “Compositions and methods for epithelial stem cell expansion and culture” (The Brigham and Women's Hospital, Inc., priority 2013, dated 2018)

Columns and labels:
[1] = tested on: human small intestinal crypts; test: Culture of human small intestinal crypts: LGR5 expression (RT-PCR) and cell number; assay type: cell-based; conditions: cell numbers at day 9 after seeding (FIG. 25A)
Text: Human small intestinal crypts were isolated from a resected normal small intestinal specimen and cultured as described in Example 1. The same cell culture solutions used in the culture of mouse small intestinal stem cells/crypts, which comprise a combination of CHIR99021 and VPA or Tubastatin A added to the ENR (EGF, Noggin, R-Spondin 1) condition, were compared to published cell culture solutions for human intestinal stem cells/crypts (Jung et al., 2011; Sato et al., 2011). RT-PCR was used to assess the maintenance of epithelial stem cells in the culture, specifically by determining the self-renewal or differentiation status. LGR5 was used as a stem cell marker and ALPI, MUC2, CHGA and LYZ were used as differentiation markers. Cell growth was assessed by counting the cell number in the cultures and by observing the morphology and size of colonies.

[2] = tested on: Notch pathway genes (Notch1, Hes1, Atoh1); test: Real-time RT-PCR of Notch pathway genes in cultured crypts; assay type: cell-based, mouse; conditions: VPA added to ENR or ENR-C for 24 hours
Procedure: Crypts were cultured in ENR-C condition with or without DAPT (D, 5 μM) and varying concentration of VPA (V, 0.25-4 mM) for 3 days. […] FIGS. 11B and 11C depict crypts cultured in the ENR (FIG. 11B) or ENR+CHIR (FIG. 11C) conditions for 4 days followed by addition of VPA at different concentrations for another 24 hours. The expression of Notch1, Hes1 and Atoh1 were analyzed by Real-time RT-PCR.
To investigate the effect of VPA on the activation of the Notch pathway, cells cultured in ENR or ENRC conditions were treated with VPA and analyzed for the expression of Notch pathway genes.

[3] = tested on: Lgr5+ stem cells from the colon; test: Colon crypt culture, Lgr5-GFP expression; assay type: cell-based, mouse; conditions: colon crypts (FIG. 3F)
Text: FIGS. 3A and 3B depict colony numbers and live single cell numbers, respectively, from triplicate wells enumerated at each time point. Error bars indicate S.D. In FIG. 3A, the series are, from left to right, Day 0, Day 2, Day 4, Day 6, Day 8, and Day 10. FIG. 3C depicts FACS sorting of freshly isolated single Lgr5-GFP+ cells. A GFP^high single cell population was collected. Representative FACS analysis and the gating strategy to define the GFP+ cell population is shown. […] The GFP-population represents Lgr5- cells as well as Lgr5+/GFP- cells (i.e. GFP silenced stem cells), which is present in all unsorted crypt cultures, but not in sorted single Lgr5-GFP cell cultures (See FIG. 2C). A total of 10,000 live cells were analyzed for each sample. FIG. 3D depicts growth factor requirements for self-renewal of Lgr5+ stem cells in the CV culture condition. Crypts were cultured for 6 days in the presence of CHIR and VPA, with EGF, Noggin, R-spondin 1 and their combinations, as indicated. E: EGF (50 ng/ml); N: Noggin (100 ng/ml); R: R-spondin 1 (500 ng/ml); […] (1 mM). FIG. 3E depicts crypts cultured for 6 days in multiple conditions as indicated. GFP and brightfield images are shown. Scale bars: 200 μm. FIG. 3F depicts morphology and Lgr5-GFP expression of colon crypts cultured in ENR, ENR-C and ENR-CV conditions. […]

[4] = tested on: Lgr5+ stem/progenitor cells derived from the mouse inner ear; test: Culture of inner ear (cochlear) Lgr5-GFP epithelial cells in Matrigel; assay type: cell-based; conditions: single cochlear epithelial cells, 11 days (FIG. 13B)

Compound | proliferation of human small intestinal crypts (cell number) [1] | expression of Hes1 [2] | expression of Notch1 [2] | GFP expression of Lgr5+ stem cells from the colon [3] | GFP expression [4] | cell proliferation [4] | colony-forming efficiency [4]
CCCC(CCC)C(=O)O [Valproic Acid] | increased cell proliferation | moderately decreased | moderately decreased | promoted GFP expression |  |  | 
Cc1cnc(-c2cnc(NCCNc3ccc(C#N)cn3)nc2-c2ccc(Cl)cc2Cl)[nH]1 [CHIR99021, 6-[[2-[[4-(2,4-Dichlorophenyl)-5-(5-methyl-1H-imidazol-2-yl)-2-pyrimidinyl]amino]ethyl]amino]-3-pyridinecarbonitrile] |  |  |  |  | not CHIR alone | not CHIR alone | not CHIR alone
